# From publication PMC6272295, “In Vitro Neuroprotective Activities of Compounds from Angelica shikokiana Makino” (Molecules, 2015)
# Read-outs that look alike come from different tables or passages of the source.
# How the values were obtained:
# [1] = Scavenging of hydroxyl radical, 2-deoxyribose degradation assay; for Hydroxyl Radical Scavenging (grade): key: +: Weak activity; ++: Strong activity
# Method: The inhibitory effect of bioactive compounds on deoxyribose degradation was determined by measuring the competition between deoxyribose and bioactive compounds for the hydroxyl radicals (^.OH) generated from the Fe^3+/ascorbate/EDTA/H2O2 system (referred to non-site-specific assay; the major activity measured is ^.OH scavenging) or an Fe^3+/ascorbate/H2O2 system (referred to as a site-specific assay; major activity measured is metal chelation). Both assays depend on the formation of a highly reactive hydroxyl radical, OH, by the interaction of iron ions with H2O2 through Fenton’s reaction. […] This assay was performed as previously described. Different concentrations of tested compounds were dissolved in 400 µL phosphate buffer (0.2 M, pH 7.4). Then, 50 µL of deoxyribose (60 mM), 50 µL of Na2EDTA (2 mM), 50 µL of FeCl3 (3.2 mM), 50 µL of H2O2 (60 mM) and 50 µL of ascorbic acid (2 mM) were added, and the total volume of the reaction mixture was adjusted to 1 mL with buffer. After water-bath incubation at 50 °C for 25 min, the reaction was terminated by 250 µL of trichloroacetic acid (10%, w/w). […] For site-specific hydroxyl-radical-scavenging activity, the reaction mixture was similar to the above method, except that EDTA was replaced by an equivalent volume of buffer.
# IC50 values of isolated compounds in AChEI and scavenging of hydroxyl radical assays were calculated using Probit Analysis (SPSS Version 16.0 for Windows, SPSS Inc., Chicago, IL, USA) for five different concentrations in three independent experiments. Cell viability was expressed as a percentage of MTT reduction, assuming that the viability of cells treated with 1% DMSO as a negative control was 100%. […] All values are the mean ± SD of three independent experiments. Data were analyzed for statistical significance using one-way ANOVA, followed by Dunnet’s test as a post-hoc test with GraphPad Prism 5.0 software for Windows (Inc., San Diego, CA, USA).
# [2] = target: T1, AChE from Electrophorus electricus (Electrophorus electricus, UniProt O42275); test: biochemical; conditions: for IC50: Ellman's method, read-out: IC50 in the AChEI assay
# T1 construct: purchased Sigma (St. Louis, MO, USA)
# Method: AChEI activity was measured using Ellman’s method. AChE hydrolyzes the substrate ACTI into acetate and thiocholine. In a neutral and alkaline medium; thiocholine reacts with DTNB to give yellow colored 2-nitro-5-thiobenzoate, which can be detected spectrophotometrically at 405 nm. Briefly, in a 96-well plate, 25 µL of 15 mM ACTI, 125 µL of 3 mM DTNB in buffer B (50 mM Tris HCl, pH = 8, 0.1 M NaCl, 0.02 M MgCl2·6H2O), 50 µL of buffer A (50 mM Tris-HCl, PH 8, 0.1% BSA) and 25 µL of tested sample (dissolved in 25% DMSO) were mixed, and the absorbance was measured using a microplate reader (Biotek, Winooski, VT, USA) at 405 nm every 16 s ten times. Then, 25 µL of AChE (0.25 U/mL in buffer A) was added and the absorbance was measured ten times every 16 s. A solution of 25% DMSO was used as a negative control. Absorbance was plotted against time and enzyme activity was calculated from the slope of the line so obtained and expressed as a percentage compared to an assay using a buffer without any inhibitor. Fractions were tested at 400 µg/mL. To avoid any increase in absorbance due to the color of the compounds or spontaneous hydrolysis of the substrate, the absorbance before addition of the enzyme was subtracted from the absorbance after adding the enzyme.
# IC50 values of isolated compounds in AChEI and scavenging of hydroxyl radical assays were calculated using Probit Analysis (SPSS Version 16.0 for Windows, SPSS Inc., Chicago, IL, USA) for five different concentrations in three independent experiments. Cell viability was expressed as a percentage of MTT reduction, assuming that the viability of cells treated with 1% DMSO as a negative control was 100%. Figures were built in Microsoft Excel 2010. All values are the mean ± SD of three independent experiments. Data were analyzed for statistical significance using one-way ANOVA, followed by Dunnet’s test as a post-hoc test with GraphPad Prism 5.0 software for Windows (Inc., San Diego, CA, USA).
# neuro-2A cells = test: Protection against Aβ25-35-induced neurotoxicity (MTT); format: cell-based, Mouse; conditions: for neuroprotection against Aβ25-35 (in words): at the highest concentration (100 µM); for Protection against Aβ25-35: summary Table 4; for Protection against Aβ25-35: key: +: Weak activity; ++: Strong activity
# Method: (§1) Neuro-2A cell line was maintained in Eagle’s Minimum Essential medium supplemented with 10% fetal bovine serum, 1% of 100× antibiotic—antimitotic agents (containing penicillin and streptomycin) in a humid atmosphere of 5% (v/v) CO2 and 95% (v/v) air at 37 °C. Neuro-2A cells were plated in 96-well cell culture plates at a density of 3 × 10^4 cells/well for H2O2 and intracellular ROS assays and 2.5 × 10^3 cells/well for the Aβ25-35-assay.
# Cell viability was determined by MTT reduction assay. Briefly, after treatment with isolated compounds, the media was replaced by fresh one after washing the cells with 100 µL PBS and 20 µL of MTT (5 mg/mL) was added to each well. After 4 h incubation at 37 °C, the state of cells was checked under microscope to confirm either cytotoxicity in H2O2 and Aβ25-35 wells or protection in positive controls and isolated compounds ones. The supernatants were aspirated carefully, and 150 µL of DMSO was added to each well to dissolve the dark blue formazan crystals. The absorbance was measured using a microplate reader at 570 nm.
# Similarly, the concentration of Aβ25-35 that decreased cell viability to about 50% was determined. […] So, the cells were incubated with different concentrations of the isolated compounds (6.25, 12.5, 25, 50 and 100 µM) and EGCG as a positive control for 3 h followed by Aβ25-35 treatment for 72 h.
# [3] = test system: intracellular ROS in Neuro-2A cells; test: Scavenging of intracellular reactive oxygen species (Bes-H2O2-AC, DFF fluorescence); format: cell-based, Mouse; conditions: for decrease of DFF fluorescence intensity (intracellular ROS): only at the higher concentration of 100 µM, H2O2 600 µM 30 min; for Intracellular ROS Scavenging: summary Table 4; for Intracellular ROS Scavenging: key: +: Weak activity; ++: Strong activity
# Method: as §1
# This assay was performed as previously described with some modifications. Briefly, Neuro-2A cells were seeded in 96-well Clear Fluorescence Black Plate (number 655090, Greiner Bio-one, Tokyo, Japan). Cells were treated with three different concentrations (25, 50, 100 µM) of the samples. After 2 h incubation, cells were subjected to oxidative stress using 600 µM of H2O2 for 30 min. The nucleus was stained by Hoechst 33342 (Dojindo, Kumamoto, Japan), and the amount of difluorofluorescein (DFF) released from the reaction of H2O2 and BES-H2O2-Ac was taken as an indication of the amount of intracellular H2O2 and ROS. Images of each well were acquired using an IN Cell Analyzer 1000 (GE Healthcare, Buckinghamshire, UK) using 360-nm (Hoechst 33342) and 480-nm (BES-H2O2-Ac) excitation filters and monitored through 460-nm and 535-nm emission filters, respectively. Developer software was used to analyze the images of Hoechst 33342 and BES-H2O2-Ac staining, and the resulting data were then applied to Spotfire Decision Site Client 8.2 software for visualizing the results.
# [4] = Fe3+/ascorbate/EDTA/H2O2 system, read-out: IC50 hydroxyl radical scavenging, Non Site-Specific
# [5] = Fe3+/ascorbate/H2O2 system without EDTA, read-out: IC50 hydroxyl radical scavenging, Site-Specific
# [6] = summary Table 4 (values of the non site-specific assay), read-out: Hydroxyl Radical Scavenging/IC50
# T1 sequence (O42275 24-633): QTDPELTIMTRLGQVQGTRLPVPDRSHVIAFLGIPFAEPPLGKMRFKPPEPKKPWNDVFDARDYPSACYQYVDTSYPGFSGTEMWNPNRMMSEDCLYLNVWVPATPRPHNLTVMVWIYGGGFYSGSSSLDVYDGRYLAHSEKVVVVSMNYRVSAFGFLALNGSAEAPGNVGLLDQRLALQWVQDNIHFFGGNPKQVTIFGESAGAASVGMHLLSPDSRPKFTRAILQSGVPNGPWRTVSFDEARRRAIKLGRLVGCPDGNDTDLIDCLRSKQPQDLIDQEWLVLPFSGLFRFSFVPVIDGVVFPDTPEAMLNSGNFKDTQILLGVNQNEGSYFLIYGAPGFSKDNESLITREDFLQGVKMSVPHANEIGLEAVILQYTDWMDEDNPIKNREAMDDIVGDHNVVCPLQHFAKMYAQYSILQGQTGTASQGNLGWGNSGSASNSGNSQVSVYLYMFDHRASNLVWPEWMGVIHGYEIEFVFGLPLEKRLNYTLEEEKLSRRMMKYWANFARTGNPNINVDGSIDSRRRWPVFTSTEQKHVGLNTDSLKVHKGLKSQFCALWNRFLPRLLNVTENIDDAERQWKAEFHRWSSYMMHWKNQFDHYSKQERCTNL
SMILES,"IC50 [1, 4]","IC50 [1, 5]","IC50 [1, 6]",inhibition at 250 µM ([2]; at 250 µM),neuroprotection against Aβ25-35 (in words) (neuro-2A cells),Protection against Aβ25-35 (neuro-2A cells),decrease of DFF fluorescence intensity (intracellular ROS) [3],Intracellular ROS Scavenging [3],IC50 [2],"% Inhibition of deoxyribose degradation, Non Site-Specific ([1]; at 300 µM (maximum solubility in phosphate buffer))",Hydroxyl Radical Scavenging (grade) ([1]; summary Table 4)
"O=c1c(O)c(-c2ccc(O)cc2)oc2cc(O)cc(O)c12 [Kaempferol (8), kaempferol]",720 ± 7.9 µM,901 ± 17.9 µM,720 ± 7.9 µM,30%,significant neuroprotection (p < 0.05),+,decrease the fluorescence intensity,+,–,–,–
"O=c1c(OC2OC(CO)C(O)C(O)C2O)c(-c2ccc(O)cc2)oc2cc(O)cc(O)c12 (stereo not drawn) [Kaempferol-3-O-glucoside (13), kaempferol-3-O-glucoside]",1150 ± 6.7 µM,1300 ± 24.3 µM,1150 ± 6.7 µM,–,significant neuroprotection (p < 0.05),+,–,+,80.4 ± 5.1 µM,–,–
"CC(=O)OC1c2c(ccc3ccc(=O)oc23)OC(C)(C)C1OC(=O)C(C)(O)C(C)O (stereo not drawn) [Hyuganin E (6), hyuganin E]",–,–,–,–,–,++,decrease the fluorescence intensity,+,286.5 ± 2.1 µM,37.5 ± 3.5%,+
